Usually melting point stands for the temperature of the solid-liquid transition.

The target of one data set is T1, human NTPDase1 (Homo sapiens, UniProt P49961).
T1 construct: expressed in transfected cells; host or cells: COS-7 cells (membrane preparation)
T1 sequence (P49961 1-510): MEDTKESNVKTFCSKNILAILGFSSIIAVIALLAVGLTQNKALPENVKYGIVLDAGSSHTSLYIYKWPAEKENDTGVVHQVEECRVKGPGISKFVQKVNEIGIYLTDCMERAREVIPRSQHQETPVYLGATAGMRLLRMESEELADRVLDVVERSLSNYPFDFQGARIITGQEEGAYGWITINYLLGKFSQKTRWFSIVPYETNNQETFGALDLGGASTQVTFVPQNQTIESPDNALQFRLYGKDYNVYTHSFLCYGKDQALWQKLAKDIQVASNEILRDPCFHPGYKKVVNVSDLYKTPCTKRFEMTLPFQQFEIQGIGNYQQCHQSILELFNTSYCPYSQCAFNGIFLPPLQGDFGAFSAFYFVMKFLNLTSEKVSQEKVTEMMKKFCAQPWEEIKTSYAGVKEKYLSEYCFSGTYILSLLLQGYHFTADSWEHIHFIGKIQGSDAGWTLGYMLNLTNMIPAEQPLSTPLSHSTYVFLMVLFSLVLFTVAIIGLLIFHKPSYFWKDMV
Description: Malachite green assay, human NTPDase1. Format: biochemical. The following applies: 2 μM compound; 50 µM ATP; COS-7 membrane preparation; read-out: % inhibition at 2 μM concentration, NTPDase1. As for the experimental part:
(§1) Membrane preparations expressing human NTPDase1, -2, -3, or -8, respectively, were obtained as previously described ([Sévigny et al., 1997]; [Cogan et al., 1999]; [Kukulski et al., 2005]; [Lecka et al., 2013]; [Lee et al., 2018]). Enzyme inhibition assays were performed using the malachite green assay in analogy to published procedures with some modifications ([Dou et al., 2018]). The reaction buffer contained 10 mM HEPES, 2 mM CaCl2, and 1 mM MgCl2 (pH 7.4) in a final volume of 50 μL in transparent 96-well half-area plates. The compounds were initially tested at a final concentration of 2 µM using a COS-7-cell membrane preparation expressing the appropriate NTPDase isoenzyme (protein amount: 143 ng for NTPDase1, 175 ng for NTPDase2, 152 ng for NTPDase3, and 175 ng for NTPDase8). Preincubated of the enzyme preparations was perfomred at 37°C in the presence or absence of test compounds with gentle shaking (Eppendorf Thermomixer comfort at 500 rpm) for 5 min. […] ([Kukulski et al., 2005]). After 15 min of incubation at 37°C with gentle shaking, the reaction was stopped by the addition of the detection reagents (20 µL malachite green solution, 0.6 mM, and 30 µL of ammonium molybdate solution, 20 mM, in 1.5 M sulfuric acid). The released inorganic phosphate was quantified after 20 min of gentle shaking at 25°C by measuring the absorption of the malachite green-phosphomolybdate complex at 600 nm using a BMG PheraStar FS plate reader (BMG Labtech GmbH, Ortenberg, Germany). The corrected absorption was calculated by subtracting the absorption of the negative control samples, which were incubated with previously denatured enzyme (90°C, 15 min). Full concentration-inhibition curves were determined with inhibitor concentrations ranging from 0.03 to 30 µM in the presence of 2% DMSO. Inhibition-type experiments were performed with 25, 50, 100, 150 and 200 µM ATP as substrate for NTPDase2 in the presence of inhibitor 20 (0, 0.25, 0.5, and 1 µM) and 25, 50, 100 and 150 µM ATP substrate for NTPDase3 and compound 42 (0.25, 0.5, and 1 µM). For all of the presented data, at least three independent experiments were performed, and IC50 values were calculated by GraphPad Prism 8 software.
(§2) Inhibition of human NTPDases was performed using the malachite green assay, which was established on a robotic system (Z’ factors > 0.70) ([Baykov et al., 1988]; [Fiene et al., 2015]). The malachite green assay enables the detection of the phosphate produced by the enzymatic hydrolysis of nucleotides. A fixed substrate concentration of 50 µM ATP for NTPDase1 and 100 µM for NTPDase2, -3, and -8 was employed. Test compounds were initially screened at a concentration of 2 μM. […] A total of 48 synthesized anthraquinone derivatives including 14 new compounds not previously described in the literature were evaluated for their inhibitory activity at human NTPDase1, -2, -3, and -8 (for results see Table 1).

For a further data set, the target named is T2, human NTPDase2 (Homo sapiens, UniProt Q9Y5L3).
T2 construct: expressed in transfected cells; host or cells: COS-7 cells (membrane preparation)
T2 sequence (Q9Y5L3 1-495): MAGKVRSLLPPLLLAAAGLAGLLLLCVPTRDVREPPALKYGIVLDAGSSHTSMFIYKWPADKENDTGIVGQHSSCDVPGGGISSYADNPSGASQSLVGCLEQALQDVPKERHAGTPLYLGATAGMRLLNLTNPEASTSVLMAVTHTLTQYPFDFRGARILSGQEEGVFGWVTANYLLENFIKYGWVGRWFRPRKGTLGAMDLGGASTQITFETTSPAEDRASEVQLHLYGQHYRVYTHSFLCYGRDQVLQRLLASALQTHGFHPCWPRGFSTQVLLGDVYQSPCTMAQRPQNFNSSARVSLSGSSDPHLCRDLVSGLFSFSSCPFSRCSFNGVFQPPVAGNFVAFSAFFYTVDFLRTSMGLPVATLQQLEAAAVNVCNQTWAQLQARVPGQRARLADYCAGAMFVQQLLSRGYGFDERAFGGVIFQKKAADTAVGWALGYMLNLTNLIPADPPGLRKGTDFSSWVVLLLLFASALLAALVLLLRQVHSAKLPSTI
Description: Malachite green assay, human NTPDase2. Particulars: 2 μM compound; 100 µM ATP; COS-7 membrane preparation; read-out: % inhibition at 2 μM concentration, NTPDase2. It is filed as biochemical. As for the experimental part: as §1, §2

The target of the next data set is T3, human NTPDase3 (Homo sapiens, UniProt O75355).
T3 construct: expressed in transfected cells; host or cells: COS-7 cells (membrane preparation)
T3 sequence (O75355 1-529): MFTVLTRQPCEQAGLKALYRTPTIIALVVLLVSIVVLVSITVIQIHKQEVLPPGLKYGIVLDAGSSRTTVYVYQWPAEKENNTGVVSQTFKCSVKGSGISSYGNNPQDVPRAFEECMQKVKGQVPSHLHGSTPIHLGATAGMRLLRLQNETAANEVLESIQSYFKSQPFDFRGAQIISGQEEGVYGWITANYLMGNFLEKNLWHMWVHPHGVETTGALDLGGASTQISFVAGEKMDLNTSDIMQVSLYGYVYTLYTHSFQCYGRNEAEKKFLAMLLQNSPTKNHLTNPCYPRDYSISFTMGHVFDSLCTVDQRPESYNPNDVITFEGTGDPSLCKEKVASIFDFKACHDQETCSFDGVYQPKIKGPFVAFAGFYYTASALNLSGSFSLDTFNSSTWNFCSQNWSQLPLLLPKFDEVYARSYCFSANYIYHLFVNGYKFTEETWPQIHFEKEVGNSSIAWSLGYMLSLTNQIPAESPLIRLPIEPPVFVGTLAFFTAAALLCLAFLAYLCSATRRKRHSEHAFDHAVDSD
Description: Malachite green assay, human NTPDase3. Format: biochemical. The following applies: 2 μM compound; 100 µM ATP; COS-7 membrane preparation; read-out: % inhibition at 2 μM concentration, NTPDase3. As for the experimental part: as §1, §2

The target of another data set is T4, human NTPDase8 (Homo sapiens, UniProt Q5MY95).
T4 construct: expressed in transfected cells; host or cells: COS-7 cells (membrane preparation)
T4 sequence (Q5MY95 1-495): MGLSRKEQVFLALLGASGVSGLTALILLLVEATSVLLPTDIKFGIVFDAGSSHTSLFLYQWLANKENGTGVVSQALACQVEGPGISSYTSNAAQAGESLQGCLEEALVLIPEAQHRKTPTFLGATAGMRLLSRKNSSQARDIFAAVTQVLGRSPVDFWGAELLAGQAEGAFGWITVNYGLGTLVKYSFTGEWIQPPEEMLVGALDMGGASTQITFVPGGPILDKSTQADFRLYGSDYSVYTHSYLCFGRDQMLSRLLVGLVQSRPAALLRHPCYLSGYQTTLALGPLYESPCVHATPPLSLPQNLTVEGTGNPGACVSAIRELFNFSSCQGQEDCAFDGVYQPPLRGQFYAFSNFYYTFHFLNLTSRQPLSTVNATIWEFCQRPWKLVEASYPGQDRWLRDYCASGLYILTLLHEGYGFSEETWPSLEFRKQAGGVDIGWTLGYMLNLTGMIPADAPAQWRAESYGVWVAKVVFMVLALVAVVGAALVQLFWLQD
Description: Malachite green assay, human NTPDase8. It is filed as biochemical. Particulars: 2 μM compound; 100 µM ATP; COS-7 membrane preparation; read-out: % inhibition at 2 μM concentration, NTPDase8. The protocol: as §1, §2

Structures can show the parent of a compound that is named as a salt.

In turn, `Nc1c(S(=O)(=O)O)cc(Nc2ccc(Sc3ccccc3)c(Cl)c2)c2c1C(=O)c1ccccc1C2=O` (as salt: sodium) [Compound 48, Sodium 1-amino-4-(3-chloro-4-phenylsulfanyl)-phenylamino-9,10-dioxo-9,10-dihydroanthracene-2-sulfonate] displayed a melting point of over 300 °C.

In the case of `Nc1c(S(=O)(=O)[O-])cc(Nc2cccc(I)c2)c2c1C(=O)c1ccccc1C2=O.[Na+]` [Compound 23, Sodium 1-amino-4-(3-iodophenylamino)-9,10-dioxo-9,10-dihydroanthracene-2-sulfonate], the melting point was over 300 °C. The inhibition at 2 µM on human NTPDase1 came out at 0%. Moreover, the inhibition at 2 µM at human NTPDase2 was 21%. Moreover, on human NTPDase3, the inhibition at 2 µM was found to be 2%. Moreover, the inhibition at 2 µM on human NTPDase8 turned out to be 4%.

`Nc1c(S(=O)(=O)[O-])cc(Nc2ccccc2CO)c2c1C(=O)c1ccccc1C2=O.[Na+]` [Compound 27, Sodium 1-amino-4-(2-(hydroxymethyl)phenylamino)-9,10-dioxo-9,10-dihydroanthracene-2-sulfonate] had a melting point of over 300 °C. The inhibition at 2 µM on human NTPDase1 was -1%. Also, the inhibition at 2 µM on human NTPDase2 is 12%. On human NTPDase3, the inhibition at 2 µM worked out at 11%. Further, the inhibition at 2 µM at human NTPDase8 was determined as 4%.

As to `Nc1c(S(=O)(=O)[O-])cc(Nc2cccc(CO)c2)c2c1C(=O)c1ccccc1C2=O.[Na+]` [Compound 28, Sodium 1-amino-4-(3-(hydroxymethyl)phenylamino)-9,10-dioxo-9,10-dihydroanthracene-2-sulfonate], the melting point is over 300 °C. On human NTPDase1, the inhibition at 2 µM is -2%. Moreover, the inhibition at 2 µM on human NTPDase2 stood at 7%. The inhibition at 2 µM at human NTPDase3 was -9%. Further, the inhibition at 2 µM on human NTPDase8 came out at 1%.

Consider `Nc1c(S(=O)(=O)[O-])cc(Nc2ccc(CO)cc2)c2c1C(=O)c1ccccc1C2=O.[Na+]` [Compound 29, Sodium 1-amino-4-(4-(hydroxymethyl)phenylamino)-9,10-dioxo-9,10-dihydroanthracene-2-sulfonate], for which the melting point was over 300 °C. In addition, at human NTPDase1, the inhibition at 2 µM was -4%. In addition, the inhibition at 2 µM on human NTPDase2 was found to be 5%. Further, on human NTPDase3, the inhibition at 2 µM was -3%. Also, the inhibition at 2 µM on human NTPDase8 was -4%.

In the case of `Nc1c(Br)cc(Nc2cccc(C(=O)O)c2)c2c1C(=O)c1ccccc1C2=O` [Compound 52], the inhibition at 2 µM on human NTPDase1 is -2%; at human NTPDase2, -5%; at human NTPDase3, 1%; at human NTPDase8, 3%.

Consider `Cc1cc(Nc2cccc(F)c2)c2c(c1N)C(=O)c1ccccc1C2=O` [Compound 54], for which the inhibition at 2 µM on human NTPDase1 was -4%; at human NTPDase2, 7%; at human NTPDase3, -2%; at human NTPDase8 it was -2%.

In the case of `COc1cccc(Nc2cc(C)c(N)c3c2C(=O)c2ccccc2C3=O)c1` [Compound 55], the inhibition at 2 µM at human NTPDase1 was -6%; at human NTPDase2, 3%; at human NTPDase3, 0%; on human NTPDase8, -2%.

Take `CCc1cccc(Nc2cc(C)c(N)c3c2C(=O)c2ccccc2C3=O)c1` [Compound 56]: the inhibition at 2 µM is -3% at human NTPDase1, 6% at human NTPDase2, -1% on human NTPDase3 and -3% at human NTPDase8.

Regarding `O=C(O)c1cc(Nc2cc(S(=O)(=O)O)cc3c2C(=O)c2ccccc2C3=O)ccc1O` [Compound 58], the inhibition at 2 µM at human NTPDase1 was determined as 1%; on human NTPDase2, 5%; at human NTPDase3, 32%; at human NTPDase8, 5%.

Source of the values: paper PMC7481482, “Development of Anthraquinone Derivatives as Ectonucleoside Triphosphate Diphosphohydrolase (NTPDase) Inhibitors With Selectivity for NTPDase2 and NTPDase3” (Frontiers in Pharmacology, 2020).
